Source: patent US6593306B1, “Methods for modulation and inhibition of telomerase” (Board of Regents, The University of Texas Systems, priority 1995, dated 2003)
Entries after “also recorded” stand apart in the source; their conditions may differ.

Assays:
[1] = test system: transformed human embryonic kidney 293 cells; assay: Growth inhibition (MTT), 293 cells; type: cell-based; settings: HEK293, 144 h, 6 days
Description: (§1) Exponentially growing cells (1-2×10^3 cells, unless specified otherwise) in 0.1 ml medium were seeded on day 0 in a 96-well microtiter plate. On day 1, 0.1 ml aliquots of medium containing graded concentrations of test analogs were added in duplicate to the cell plates. After incubation at 37° C. in a humidified incubator for 6 days, the plates were centrifuged briefly and 100 μl of the growth medium was removed. Cell cultures were incubated with 50 μl of 3-(4,5-dimethylthiazol-2-yl)-2,5-diphenyl-tetrazolium bromide, (MTT) at a concentration of 1 mg/ml in Dulbecco's phosphate buffered saline (PBS)) for 4 hr at 37° C. The resulting purple formazan precipitate was solubilized with 200 μl of 0.04 N HCl in isopropyl alcohol. Absorbance was monitored in a BioRad Model 3550 Microplate Reader at a test wavelength of 570 nm and a reference wavelength of 630 nm. The absorbance was transferred to a PC 486 computer. The IC50 values were determined by a computer program (EZ-ED50) that fits all the data to the following four-parameter logistic equation: [formula]
(§2) where Amax is the absorbance of control cells, Amin is the absorbance of cells in the presence of highest agent concentration, Y is the observed absorbance, X is the agent concentration, IC50 is the concentration of agent that inhibits the cell growth by 50% of control cells (based on the absorbance) and n is the slope of the curve.
(§3) This is due to the extracellular dephosphorylation of the mono-, di-, or triphosphates by […] or 5′-nucleotidase back to the nucleoside. With this in mind, the inventors used only nucleosides rather than nucleoside triphosphates in these studies. Cultured tumor cells were incubated with selected nucleosides at graded concentrations for 6 days and the growth inhibition was determined by the standard MTT assay.

[2] = test system: human colon carcinoma HT29 cells; assay: Growth inhibition (MTT), HT29 cells; type: cell-based; settings: HT-29, 144 h, 6 days
Description: as §1, §2, §3

human telomerase = molecular target: T1, human telomerase (Homo sapiens, UniProt O14746); assay: Cell-free telomerase inhibition, conventional or modified assay not stated; type: biochemical
T1 construct: telomerase in S100 extracts of transformed human fetal kidney tumor 293 cells (a processive telomerase); endogenous in cells; host or cells: human cells, (S100 extract)
T1 sequence (O14746 whole entry): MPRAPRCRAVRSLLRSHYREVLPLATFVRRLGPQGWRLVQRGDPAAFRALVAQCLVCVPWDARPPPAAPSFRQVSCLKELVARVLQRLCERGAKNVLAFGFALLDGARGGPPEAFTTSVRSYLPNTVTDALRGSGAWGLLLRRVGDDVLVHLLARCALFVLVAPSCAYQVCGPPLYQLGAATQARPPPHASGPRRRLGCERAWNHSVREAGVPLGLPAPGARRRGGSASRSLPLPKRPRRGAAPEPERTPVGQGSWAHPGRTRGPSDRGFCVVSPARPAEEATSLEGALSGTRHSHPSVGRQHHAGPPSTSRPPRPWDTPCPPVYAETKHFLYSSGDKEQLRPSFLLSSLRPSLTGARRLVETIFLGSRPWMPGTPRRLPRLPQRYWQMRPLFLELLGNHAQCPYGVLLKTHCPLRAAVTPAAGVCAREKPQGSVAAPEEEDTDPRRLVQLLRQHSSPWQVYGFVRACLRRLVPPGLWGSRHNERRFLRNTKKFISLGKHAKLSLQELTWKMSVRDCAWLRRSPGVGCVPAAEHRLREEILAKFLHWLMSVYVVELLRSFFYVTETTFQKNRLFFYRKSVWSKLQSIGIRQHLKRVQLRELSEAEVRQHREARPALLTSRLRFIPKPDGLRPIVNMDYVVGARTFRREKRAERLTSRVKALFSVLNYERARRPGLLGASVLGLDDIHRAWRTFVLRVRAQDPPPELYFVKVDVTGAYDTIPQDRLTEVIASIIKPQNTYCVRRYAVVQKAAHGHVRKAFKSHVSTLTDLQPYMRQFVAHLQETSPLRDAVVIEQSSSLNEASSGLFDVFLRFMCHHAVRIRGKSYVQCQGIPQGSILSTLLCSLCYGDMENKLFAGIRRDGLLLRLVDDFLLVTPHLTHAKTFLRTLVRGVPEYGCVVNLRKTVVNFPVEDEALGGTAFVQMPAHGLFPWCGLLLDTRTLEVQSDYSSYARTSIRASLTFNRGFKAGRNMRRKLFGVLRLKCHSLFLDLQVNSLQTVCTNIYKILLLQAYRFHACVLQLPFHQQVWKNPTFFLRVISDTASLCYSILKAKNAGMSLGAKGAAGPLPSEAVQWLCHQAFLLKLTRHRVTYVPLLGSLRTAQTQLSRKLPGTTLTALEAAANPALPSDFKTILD
T1 sequence (O60832 whole entry partner): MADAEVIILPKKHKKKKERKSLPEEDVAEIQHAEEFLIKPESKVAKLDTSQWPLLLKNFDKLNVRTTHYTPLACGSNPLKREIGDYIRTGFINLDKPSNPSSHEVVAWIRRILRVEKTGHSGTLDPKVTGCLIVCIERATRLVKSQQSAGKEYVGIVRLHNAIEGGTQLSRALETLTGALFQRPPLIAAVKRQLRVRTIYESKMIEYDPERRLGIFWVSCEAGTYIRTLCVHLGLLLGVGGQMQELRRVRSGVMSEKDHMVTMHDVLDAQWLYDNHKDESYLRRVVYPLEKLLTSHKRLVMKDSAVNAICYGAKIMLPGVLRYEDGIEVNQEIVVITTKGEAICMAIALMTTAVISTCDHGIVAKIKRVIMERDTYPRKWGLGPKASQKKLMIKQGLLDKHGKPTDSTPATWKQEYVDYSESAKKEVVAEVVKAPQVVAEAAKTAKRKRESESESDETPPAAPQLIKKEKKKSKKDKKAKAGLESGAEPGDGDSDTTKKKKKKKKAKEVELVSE
T1 sequence (Q9NPE3 whole entry partner): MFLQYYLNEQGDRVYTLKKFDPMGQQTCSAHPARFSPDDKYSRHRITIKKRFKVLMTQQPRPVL
T1 sequence (Q9NX24 whole entry partner): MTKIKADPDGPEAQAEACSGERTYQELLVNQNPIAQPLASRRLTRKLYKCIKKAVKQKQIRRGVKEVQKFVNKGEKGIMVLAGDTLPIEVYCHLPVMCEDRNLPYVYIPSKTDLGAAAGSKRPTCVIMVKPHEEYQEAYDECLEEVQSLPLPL
T1 sequence (Q9NY12 whole entry partner): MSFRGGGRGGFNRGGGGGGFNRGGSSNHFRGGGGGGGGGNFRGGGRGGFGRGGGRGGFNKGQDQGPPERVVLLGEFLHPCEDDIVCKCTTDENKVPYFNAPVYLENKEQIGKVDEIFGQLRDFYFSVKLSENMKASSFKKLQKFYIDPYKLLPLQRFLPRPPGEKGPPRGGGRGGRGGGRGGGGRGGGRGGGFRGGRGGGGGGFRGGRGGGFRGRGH
Description: Selected nucleoside triphosphates were tested in one or both of the “conventional” or “modified” telomerase assays described in Methods using the human processive and the CHO non-processive telomerases. Initially, three chain-terminators were selected: 2′,3′-dideoxythymidine triphosphate (ddTTP), 3′-fluoro-2′,3′-dideoxythymidine triphosphate (F-ddTTP), and 3′-azido-2′-, 3′-dideoxythymidine triphosphate (AZ-ddTTP) as prototype agents to investigate whether they could inhibit telomerase activity. The three compounds are dTTP analogs without a 3′-OH group for subsequent chain elongation. They may either incorporate into the telomere sequence and terminate further chain elongation or compete directly with dTTP for the substrate binding site in the telomerase reaction. In either case, telomerase activity is inhibited.

[3] = molecular target: T2, human 293 cell telomerase (Homo sapiens, UniProt O14746); assay: Conventional telomerase assay (32P-dGTP as radiolabel substrate); type: biochemical; settings: for Inhibition of 293 Telomerase, Conventional Assay *dGTP: up to 2 mM
T2 construct: with 20 μl of S100 enzyme extract; endogenous in cells; host or cells: 293 cells (transformed human embryonic kidney), S100 extract
T2 sequence (O14746 whole entry): as the sequence (O14746 whole entry) above
T2 sequence (O60832 whole entry partner): as the sequence (O60832 whole entry partner) above
T2 sequence (Q9NPE3 whole entry partner): as the sequence (Q9NPE3 whole entry partner) above
T2 sequence (Q9NX24 whole entry partner): as the sequence (Q9NX24 whole entry partner) above
T2 sequence (Q9NY12 whole entry partner): as the sequence (Q9NY12 whole entry partner) above
Description: Telomerase was prepared from transformed human embryonic kidney 293 cell line. Human embryonic kidney 293 cells were grown in Joklik's modified MEM niedium (Sigma, St Louis, Mo.) supplemented with 5% fetal bovine serum at 37° C. in a humidified atmosphere with 5% CO2. The cells were subcultured at 1-2×10^5 cells/ml twice a week. When the cells grew to approximately 1×10^6 cells/ml, the cells (˜2×10^9 cells) were centrifuged and transferred into polypropylene centrifuge (50 ml) tubes and kept on ice. The cells were then centrifuged in a (Beckman GS-6R) centrifuge at 1200 RPM for 10 minutes at 4° C., and resuspended in PBS. The washed cells were resuspended in 15 ml Hypobuffer Mix (10 mM HEPES, pH 8.0, 3 mM KCl, 1 mM MgCl2, 1 mM dithiothreitol, 1 μM leupeptin, 0.1 mM PMSF, 10 μM pepstatin, 0.83 μg/ml chymostatin, 0.83 μg/ml antipain, and 43.2 units/ml RNase Guard) and centrifuged. The cell pellets were resuspended in 0.75×volumes Hypobuffer [Hypobuffer Mix+40 units/ml RNase Guard (Pharmacia, N.J.) to allow the cells to swell. The cell suspensions were homogenized to allow the telomerase to “leak” into the cytosolic fraction. The lysate was then poured into new, autoclaved, 3 ml polyallomer ultracentrifuge tubes and centrifuged at 100,000×g for 1 hour at 4° C. A top lipid layer was carefully removed and discarded, and the supernatant was collected. 1/50 of the volume of 5 M NaCl was added to the clear supernatant fluid to achieve a final concentration of 0.1 M. Sterile glycerol was added until the final glycerol concentration was 20%. The enzyme solution was aliquoted into Eppendorf tubes and quickly frozen in liquid nitrogen and stored at −70° C.
The assay is based on the ability of the telomerase enzyme in the S100 fractions to recognize an 18-base DNA primer with the DNA sequence (TTAGGG)3. DNA polymerization initiates from the 3′-OH group of the oligonucleotide. By reading from its complementary internal RNA template, telomerase adds a repeated set of 5′-TTAGGG-3′ to the original 18-base primer. Non-synchronous “starts” and “terminations” among the different enzyme complexes result in a degenerative set of different length DNA primers occurring in 6-base increments. Incorporation of [α-^32P]dGTP at the guanine positions of the 5′-TTAGGG-3′ sequence allows the newly synthesized DNA fragments to be visualized by autoradiography. The resulting image forms the characteristic “ladder” structure that is used to identify telomerase activity. The images are scanned using a phosphoimager or laser densitometer (Molecular Dynamics, Sunnyvale, Calif.). Comparisons of the total volumes under the corresponding peaks are used to quantitate the total amount of [α-^32P] incorporated in the primer extension reaction.
The telomerase assay was initiated by mixing 20 μl of 2×reaction mix (100 mM Tris-OAc, pH 8.5, 100 mM KOAc, 10 mM β-mercaptoethanol, 2 mM spermidine, 2 mM MgCl2, 2 mM dATP, 2 mM dTTP, 2 μM oligo primer, potential inhibitors of interest at the appropriate concentration, and 50 μCi [α^32-P]dGTP) with 20 μl of S100 enzyme extract. The reaction mixture was then incubated at 30° C. for 1 hour. The reaction was stopped by incubating sequentially with 50 μl of the stop solution (10 mM Tris pH 7.5, 20 mM EDTA, 0.1 mg/ml RNase A) and 50 μl of deproteinase solution (10 mM Tris pH 7.5, 0.5% SDS, 0.3 mg/ml Proteinase K). The mixture was extracted with 50% phenol/50% chloroform (v/v). The DNA was then precipitated by adding 2.5×volumes of cold EtOH and letting it stand overnight at −70° C. The DNAs were separated on an 8% polyacrylamide/7M urea denaturing gel at 1600 V for 1.5 hours. The gel was dried and exposed to Kodak XAR-5 film to gel in −70° C. Typical autoradiographic exposures required 3-14 days.

| Compound | IC50 [1] [µM] | IC50 [2] [µM] | also measured |
| --- | --- | --- | --- |
| Nc1ncnc2c1c(Br)cn2[C@H]1C[C@H](O)[C@@H](CO)O1 [FS018, 7-Bromo-7-Deaza-2′-Deoxyadenosine] | 1.14 | 0.963 | – |
| Nc1nc2c(ncn2[C@H]2C[C@H](O)[C@@H](COP(=O)(O)OP(=O)(O)CP(=O)(O)O)O2)c(=O)[nH]1 [NA014, 2′-Deoxyguanosine-5′-β,γ-Methylene Triphosphate] | – | – | IC50 (human telomerase; Summary values, assay variant not stated, read-out: IC50): 102 µM; remaining activity at 125 µM ([3]; 0.125 mM, read-out: % of Control): 60%; remaining activity at 250 µM ([3]; 0.25 mM, read-out: % of Control): 38%; remaining activity at 500 µM ([3]; 0.5 mM, read-out: % of Control): 42%; remaining activity at 1000 µM ([3]; 1.0 mM, read-out: % of Control): 40%; remaining activity at 2000 µM ([3]; 2.0 mM, read-out: % of Control): 28%; IC50 ([3]; 293 cell telomerase): < 125 µM |
| N#Cc1cn([C@H]2C[C@H](O)[C@@H](CO)O2)c2ncnc(N)c12 [FS005, 7-Cyano-7-Deaza-2′-Deoxyadenosine] | 18.2 | 51.2 | – |
| Cn1c(N)nc2c(ccn2[C@H]2C[C@H](O)[C@@H](CO)O2)c1=S [NA027, 1-Methyl-6-Thio-7-Deaza-2′-Deoxyguanosine] | 161 | 310 | – |
| Nc1nc2c(c(Cl)cn2[C@H]2C[C@H](O)[C@@H](CO)O2)c(=O)[nH]1 [FS019, 7-Chloro-7-Deaza-2′-Deoxyguanosine] | 237 | 109 | – |
| Cc1cn([C@H]2C[C@H](O)[C@@H](CO)O2)c2nc(N)[nH]c(=O)c12 [FS022, 7-Methyl-7-Deaza-2′-Deoxyguanosine] | 489 | 196 | – |
| Cc1cn([C@H]2C[C@H](O)[C@@H](CO)O2)c2ncnc(N)c12 [FS024, 7-Methyl-7-Deaza-2′-Deoxyadenosine] | 109 | 99.6 | – |
| Nc1ncnc2c1c(I)nn2[C@H]1C[C@H](O)[C@@H](CO)O1 [FS015, 7-Iodo-7-Deaza-8-Aza-2′-Deoxyadenosine] | 1.88 | 8.09 | – |
| 5-Allylamino-2′-Deoxyuridine-5′-Triphosphate [NA021] | – | – | % of Control ([3]; 0.125 mM): 51%; % of Control ([3]; 0.25 mM): 70%; % of Control ([3]; 0.5 mM): 43%; % of Control ([3]; 1.0 mM): 33%; % of Control ([3]; 2.0 mM): 30%; % of Control ([3]; 10 mM (so in the source)): 100%; IC50 ([3]; 293 cell telomerase): ~500 µM; Inhibition of 293 Telomerase, Conventional Assay *dGTP [3]: concentration dependent inhibition; also recorded: the telomerase activity is weak) |
| Nc1ncnc2c1c(Cl)cn2[C@H]1C[C@H](O)[C@@H](CO)O1 [FS017, 7-Chloro-7-Deaza-2′-Deoxyadenosine] | 3.32 | 15.6 | – |
| Nc1nc2c(ncn2[C@H]2C[C@H](O)[C@@H](COP(O)(O)=S)O2)c(=O)[nH]1 [NA015, 2′-Deoxyguanosine-5′-Phosphorothioate] | – | – | Inhibition of 293 Telomerase, Conventional Assay *dGTP [3]: No Inhibition (up to 2 mM) |
| Cc1cn([C@H]2CC[C@@H](COP(=O)(O)OP(=O)(O)OP(=O)(O)O)O2)c(=O)[nH]c1=O [NA001, 2′,3′-Dideoxythymidine-5′-Triphosphate] | – | – | IC50 ([3]; 293 cells telomerase, competing dTTP 1-2 mM, inhibitor 0 to 2 mM): ~500 µM |
| Nc1ncnc2c1c(I)cn2[C@H]1C[C@H](O)[C@@H](CO)O1 [FS004, 7-Iodo-7-Deaza-2′-Deoxyadenosine] | 0.319 | 1.88 | – |
| Nc1nc2c(ncn2[C@@H]2O[C@H](COP(=O)(O)OP(=O)(O)CP(=O)(O)O)[C@@H](O)[C@H]2O)c(=O)[nH]1 [NA011, Guanosine-5′-β,γ-Methylene Triphosphate] | – | – | % of Control ([3]; 0.125 mM): 82%; % of Control ([3]; 0.25 mM): 63%; % of Control ([3]; 0.5 mM): 86%; % of Control ([3]; 1.0 mM): 70%; % of Control ([3]; 2.0 mM): 65%; Inhibition of 293 Telomerase, Conventional Assay *dGTP [3]: inactive; also recorded: No Inhibition (up to 2 mM) |
| Nc1nc2c(c(I)cn2[C@H]2C[C@H](O)[C@@H](CO)O2)c(=O)[nH]1 [FS021, 7-Iodo-7-Deaza-2′-Deoxyguanosine] | 63.4 | 78.8 | – |
| Nc1nc2c(c(Br)cn2[C@H]2C[C@H](O)[C@@H](CO)O2)c(=O)[nH]1 [FS020, 7-Bromo-7-Deaza-2′-Deoxyguanosine] | 180 | 170 | – |
| Cc1cn([C@H]2C[C@H](O)[C@@H](COP(=O)(O)OP(=O)(O)OP(=O)(O)O)O2)c(=O)[nH]c1=S [4-thiothymidine triphosphate] | – | – | inhibition of human telomerase activity (human telomerase; 1 mM): completely |
| Nc1nc2c(ccn2[C@H]2C[C@H](O)[C@@H](CO)O2)c(=O)[nH]1 [NA025, 7-Deaza-2′-Deoxyguanosine] | 130 | 102 | – |
| Nc1ncnc2c1ccn2[C@H]1C[C@H](O)[C@@H](CO)O1 [NA024, 7-Deaza-2′-Deoxyadenosine] | 533 | 146 | – |
